ChEMBL document CHEMBL4190278, “Multipotent AChE and BACE-1 inhibitors for the treatment of Alzheimer's disease: Design, synthesis and bio-analysis of 7-amino-1,4-dihydro-2H-isoquilin-3-one derivates” (Eur J Med Chem, 2017)
Calls of active or inactive are those of the source. The calls are words filed in the database; no cut-off is given here.

System: not listed separately
Assay: Metal chelating activity assessed as Cu2+-compound complex formation at 35 uM by UV-Visible spectrophotometric method
In the case of `COc1ccccc1C(=O)N1Cc2cc(NC(=O)c3ccccc3)ccc2CC1=O`, the Activity is reported as “Active”.

Target: T1, Acetylcholinesterase (Homo sapiens, UniProt P22303)
T1 sequence (P22303 whole entry): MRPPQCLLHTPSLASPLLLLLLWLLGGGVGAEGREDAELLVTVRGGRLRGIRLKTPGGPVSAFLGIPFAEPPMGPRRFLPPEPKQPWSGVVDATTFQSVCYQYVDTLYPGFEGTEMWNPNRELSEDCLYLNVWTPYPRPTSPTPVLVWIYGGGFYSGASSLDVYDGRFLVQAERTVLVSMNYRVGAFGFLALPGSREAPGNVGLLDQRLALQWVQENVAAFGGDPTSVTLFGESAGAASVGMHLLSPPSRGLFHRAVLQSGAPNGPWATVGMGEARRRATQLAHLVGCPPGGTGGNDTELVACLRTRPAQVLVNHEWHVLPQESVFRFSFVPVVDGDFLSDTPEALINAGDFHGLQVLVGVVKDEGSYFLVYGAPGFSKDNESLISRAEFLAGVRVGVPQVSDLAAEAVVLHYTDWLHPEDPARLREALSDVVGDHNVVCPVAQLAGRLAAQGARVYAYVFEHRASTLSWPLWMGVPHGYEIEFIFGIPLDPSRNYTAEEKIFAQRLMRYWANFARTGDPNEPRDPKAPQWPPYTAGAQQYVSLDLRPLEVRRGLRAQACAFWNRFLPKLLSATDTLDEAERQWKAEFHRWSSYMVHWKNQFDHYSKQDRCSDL
Assay: Potency index, ratio of donepezil IC50 to compound IC50 for human AChE
Work on `COc1ccccc1C(=O)N1Cc2cc(NC(=O)c3cccc(Cl)c3)ccc2CC1=O` yielded a Ratio IC50 of 315. `COc1ccccc1C(=O)N1Cc2cc(NC(=O)c3ccccc3)ccc2CC1=O` showed a Ratio IC50 of 181.

Target: T1, Acetylcholinesterase
Assay: Inhibition of human AChE using acetylthiocholine as substrate by Ellman's method
With `COc1ccccc1C(=O)Nc1ccc2c(c1)CN(C(=O)c1cccc(C)c1)C(=O)C2` the IC50 was 0.0259 nM. For `Cc1cccc(C(=O)Nc2ccc3c(c2)CN(C(=O)c2cccc(Cl)c2)C(=O)C3)c1`, the IC50 was 0.0209 nM. Compound `Cc1cccc(C(=O)N2Cc3cc(NC(=O)c4cccc(Cl)c4)ccc3CC2=O)c1` has an IC50 of 0.0144 nM. Work on `Cc1cccc(C(=O)N2Cc3cc(NC(=O)c4ccccc4)ccc3CC2=O)c1` yielded an IC50 of 0.0262 nM. Compound `COc1ccccc1C(=O)Nc1ccc2c(c1)CNC(=O)C2` has an IC50 of 926 nM. `COc1ccccc1C(=O)N1Cc2cc(NC(=O)c3ccccc3)ccc2CC1=O` showed an IC50 of 0.0189 nM. For `O=C(Nc1ccc2c(c1)CN(C(=O)c1ccccc1)C(=O)C2)c1ccccc1`, the IC50 was 0.51 nM. For `Nc1ccc2c(c1)CNC(=O)C2`, the IC50 was 1360 nM. Compound `COc1ccccc1C(=O)Nc1ccc2c(c1)CN(C(=O)c1ccccc1OC)C(=O)C2` has an IC50 of 0.0216 nM. `O=C(Nc1ccc2c(c1)CN(C(=O)c1cccc(Cl)c1)C(=O)C2)c1ccccc1` showed an IC50 of 0.0284 nM. `Cc1cccc(C(=O)Nc2ccc3c(c2)CN(C(=O)c2cccc(C)c2)C(=O)C3)c1` gave an IC50 of 0.0135 nM. For `Cc1cccc(C(=O)Nc2ccc3c(c2)CNC(=O)C3)c1`, the IC50 was 791 nM. For `O=C(Nc1ccc2c(c1)CN(C(=O)c1cccc(Cl)c1)C(=O)C2)c1cccc(Cl)c1`, the IC50 was 0.0142 nM. Compound `O=C1Cc2ccc(NC(=O)c3cccc(Cl)c3)cc2CN1` has an IC50 of 914 nM. For `O=C1Cc2ccc(NC(=O)c3ccccc3)cc2CN1`, the IC50 was 1320 nM.
